# Experiments:
# [1] = Acute toxicity determined after intravenal administration in mice; assay type: organism-based; settings: mouse, in vivo, iv
# Rattus norvegicus [2] = assay: Effective dose against aconitine-induced arrhythmia after intravenal administration in anesthetized rats; assay type: functional
# Rattus norvegicus [3] = species on record: Rattus norvegicus; assay: Relative potency with reference to quinidine; assay type: functional
# Rattus norvegicus [4] = assay: Tested for incidence of arrhythmias in rats after a intravenal administration of 1 mg/kg expressed as no. of positive cases out of no. of tested cases (10); assay type: functional
# Cavia porcellus [5] = assay: Amount of ouabain needed for production of ventricular arrhythmias that causes death in guinea pig by cardiac arrest at a dose of 1 mg/kg iv given 5 min prior; assay type: functional, Cardiac ventricle
# Cavia porcellus [6] = assay: Amount of ouabain needed for production of ventricular extra-systoles at a dose of 1 mg/kg (iv given 5 min prior) in guinea pig; assay type: functional, Cardiac ventricle
# Cavia porcellus [7] = assay: Amount of ouabain needed for production of ventricular fibrillation at a dose of 1 mg/kg (iv given 5 min prior) in guinea pig; assay type: functional, Cardiac ventricle
# Rattus norvegicus [8] = assay: Tested for incidence of arrhythmias in rats after a intravenal administration of 2 mg/kg expressed as no. of positive cases out of no. of tested cases (10); assay type: functional
# [9] = Acute toxicity in secondary evaluation when administered intravenously (iv) against aconitine-induced arrhythmias in anesthetized rats..parenthesis indicates 95%CL; assay type: organism-based; settings: rat, in vivo
# Rattus norvegicus [10] = assay: Incidence of arrhythmias in rats after a intravenal administration at 4 mg/kg, expressed as no. of positive cases out of no. of tested cases (10); assay type: functional
# Cavia porcellus [11] = assay: Amount of ouabain needed for production of ventricular extra-systoles at a dose of 2 mg/kg (iv given 5 min prior) in guinea pig; assay type: functional, Cardiac ventricle
# Cavia porcellus [12] = assay: Amount of ouabain needed for production of ventricular fibrillation at a dose of 2 mg/kg (iv given 5 min prior) in guinea pig; assay type: functional, Cardiac ventricle
# Cavia porcellus [13] = assay: Amount of ouabain needed for production of ventricular arrhythmias that causes death in guinea pig by cardiac arrest at a dose of 2 mg/kg iv given 5 min prior; assay type: functional, Cardiac ventricle
SMILES,LD50 [1] [mg/kg],ED150 (Rattus norvegicus [2]) [mg/kg],Relative potency (Rattus norvegicus [3]),No. of positive cases (Rattus norvegicus [8]),No. of positive cases (Rattus norvegicus [10]),also measured
Cc1cccc(C)c1NC(=O)C1=CC(C)(C)NC1(C)C,6,2.1,5.7,,,No. of positive cases (Rattus norvegicus [4]): 7
C=CCOc1ccccc1CNCCCNC(=O)C1=CC(C)(C)NC1(C)C,18,1.9,6.3,10,,Average dose (Cavia porcellus [5]): 306.1 µg/kg; Average dose (Cavia porcellus [6]): 224.3 µg/kg; Average dose (Cavia porcellus [7]): 280.2 µg/kg
Cc1cccc(C)c1NC(=O)C(C)NC(=O)C1=CC(C)(C)N([O])C1(C)C (stereo not given),,,,,0,LD50 [9]: 165 mg/kg
CC1(C)C=C(C(=O)NCCCNCc2ccc(OCc3ccccc3)cc2)C(C)(C)N1,20,1.3,9.2,8,,
CC1(C)CC(C(=O)NCCCNCc2ccccc2OCc2ccccc2)C(C)(C)N1 (stereo not given),13,0.52,22.9,,,No. of positive cases (Rattus norvegicus [4]): 10
Cc1cccc(C)c1NC(=O)CNC(=O)C1=CC(C)(C)NC1(C)C,53,2.4,4.9,,10,Average dose (Cavia porcellus [11]): 214.2 µg/kg; Average dose (Cavia porcellus [12]): 284.2 µg/kg; Average dose (Cavia porcellus [13]): 331.4 µg/kg
COc1ccccc1CNCCCNC(=O)C1=CC(C)(C)NC1(C)C.Cl,7.9,1.6,7.4,,10,
COc1cccc(CNCCCNC(=O)C2=CC(C)(C)NC2(C)C)c1OCc1ccccc1,6.2,0.21,56.7,,10,
CC1(C)C=C(C(=O)NCCCNC(=O)COc2ccccc2)C(C)(C)N1,49,2.6,4.6,,10,
COc1cc(OCc2ccccc2)ccc1CNCCCNC(=O)C1=CC(C)(C)NC1(C)C,13,0.69,17.2,,10,
Cc1cccc(C)c1NC(=O)CNC(=O)C1CC(C)(C)NC1(C)C (stereo not given),40,0.84,14.2,,10,Average dose (Cavia porcellus [11]): 196.9 µg/kg; Average dose (Cavia porcellus [12]): 290.9 µg/kg; Average dose (Cavia porcellus [13]): 319.9 µg/kg
CC1(C)C=C(C(=O)NCCCNCc2cccc(OCc3ccccc3)c2)C(C)(C)N1,7,0.74,16.1,10,,
CC1(C)C=C(C(=O)NCC(O)CNCc2cccs2)C(C)(C)N1 (stereo not given),49,7.6,1.6,,8,
Cc1cccc(C)c1NC(=O)C(C)NCCCNC(=O)C1=CC(C)(C)NC1(C)C (stereo not given),26,1.3,9.1,,10,
C=CCc1ccc(OC(C)C(=O)NCCNC(=O)C2=CC(C)(C)NC2(C)C)c(OC)c1 (stereo not given),9.3,2.8,4.3,7,,
CCN(CC)C(=O)COc1c(CNCCCNC(=O)C2=CC(C)(C)NC2(C)C)cccc1OC,2.1,,,,,No. of positive cases (Rattus norvegicus [4]): 1
CC1(C)C=C(C(=O)NCCCNCc2ccccc2OCc2ccccc2)C(C)(C)N1,9,0.6,19.8,10,,
C=C[C@H]1CN2CC[C@H]1C[C@@H]2[C@@H](O)c1ccnc2ccc(OC)cc12 [QUINIDINE],,,,,,Average dose (Cavia porcellus [11]): 195.4 µg/kg; Average dose (Cavia porcellus [12]): 291.1 µg/kg; Average dose (Cavia porcellus [13]): 313.9 µg/kg
C=CCOc1cccc(CNCCCNC(=O)C2=CC(C)(C)NC2(C)C)c1,34,2.7,4.4,7,,
Cc1cccc(C)c1OCC(C)NC(=O)C1=CC(C)(C)N([O])C1(C)C (stereo not given),,,,,0,LD50 [9]: 54 mg/kg
CC1(C)C=C(C(=O)NCCCN2C(=O)c3ccccc3C2=O)C(C)(C)N1,,,4.6,10,,Average dose (Cavia porcellus [11]): 236.9 µg/kg; Average dose (Cavia porcellus [12]): 345.5 µg/kg; Average dose (Cavia porcellus [13]): 382.5 µg/kg
CC1(C)C=C(C(=O)NCCCNCc2cccc(O)c2)C(C)(C)N1.Cl,13,8.5,1.4,,4,
C=CCc1cc(C)ccc1OCC(=O)NCCCNC(=O)C1=CC(C)(C)NC1(C)C,,,4.9,8,,

SMILES,LD50 [1] [mg/kg],ED150 (Rattus norvegicus [2]) [mg/kg],Relative potency (Rattus norvegicus [3]),No. of positive cases (Rattus norvegicus [8]),No. of positive cases (Rattus norvegicus [10]),also measured
COc1cc(CNCCCNC(=O)C2=CC(C)(C)NC2(C)C)ccc1O,8.7,0.47,25.3,10,,
C=CCOc1ccccc1CNCCCNC(=O)C1CC(C)(C)NC1(C)C (stereo not given),13,2.1,5.7,10,,
CC1(C)C=C(C(=O)NCCCNCc2cccc(Oc3ccccc3)c2)C(C)(C)N1,11,0.96,12.4,10,,
COc1cc(CNCCCNC(=O)C2=CC(C)(C)NC2(C)C)cc(OC)c1OC,22,3.8,3.1,,9,
COc1ccc(CNCCCNC(=O)C2=CC(C)(C)NC2(C)C)c(OC)c1,16,1.7,7,,9,
CC1(C)C=C(C(=O)NCCNCc2ccc(Cl)cc2)C(C)(C)N1,82,5.4,2.2,,5,
C=CCc1ccc(OCC(=O)NCCNC(=O)C2=CC(C)(C)NC2(C)C)c(OC)c1,11,6.3,1.9,,7,
CC1(C)C=C(C(=O)NCCCNCc2ccccc2OCC(N)=O)C(C)(C)N1,10,,,1,,
CC1(C)C=C(C(=O)NCCCNCc2ccccc2O)C(C)(C)N1,28,4.7,2.5,,7,
Cc1cccc(C)c1NC(=O)C(C)NC(=O)C1=CC(C)(C)NC1(C)C (stereo not given),15,1.9,6.3,,10,Average dose (Cavia porcellus [11]): 208.9 µg/kg; Average dose (Cavia porcellus [12]): 325.3 µg/kg; Average dose (Cavia porcellus [13]): 361 µg/kg
CC1(C)CC(C(=O)NCCCNCc2ccccc2Cl)C(C)(C)N1 (stereo not given),31,2.4,4.9,,7,
Cc1cccc(C)c1NC(=O)CNCCCNC(=O)C1=CC(C)(C)NC1(C)C,7.4,0.37,32.2,,,No. of positive cases (Rattus norvegicus [4]): 10
COc1cccc(CNCCCNC(=O)C2=CC(C)(C)NC2(C)C)c1O,26,3.4,3.5,,10,
C/C=C/c1ccc(OCC(=O)NCCCNC(=O)C2=CC(C)(C)NC2(C)C)c(OC)c1,30,,5.4,,7,Average dose (Cavia porcellus [11]): 201.1 µg/kg; Average dose (Cavia porcellus [12]): 250.9 µg/kg; Average dose (Cavia porcellus [13]): 284.7 µg/kg
C=CCc1ccc(OC(C)C(=O)NCCCNC(=O)C2=CC(C)(C)NC2(C)C)c(OC)c1 (stereo not given),7.6,0.8,14.9,,,No. of positive cases (Rattus norvegicus [4]): 10
Cc1cccc(C)c1NC(=O)C(C)NCCCNC(=O)C1CC(C)(C)NC1(C)C (stereo not given),39,2.3,5.1,,10,
C/C=C/c1ccc(OCC(=O)NCC(C)(C)CNC(=O)C2=CC(C)(C)NC2(C)C)c(OC)c1,31,3.9,3.1,,6,
CC1(C)C=C(C(=O)NCCCNCc2cccs2)C(C)(C)N1,65,5.3,2.2,,7,
Cc1cccc(C)c1NC(=O)CNC(=O)C1=CC(C)(C)N([O])C1(C)C,,,,,0,LD50 [9]: 136 mg/kg
CCc1nc2ccccc2c(=O)n1CCCNC(=O)C1=CC(C)(C)NC1(C)C,,,7,10,,Average dose (Cavia porcellus [5]): 316 µg/kg; Average dose (Cavia porcellus [6]): 211.5 µg/kg; Average dose (Cavia porcellus [7]): 298.2 µg/kg
CC1(C)C=C(C(=O)NCC(O)CNC(=O)c2cccs2)C(C)(C)N1 (stereo not given),65,6.7,1.77,,7,
C=CCc1cc(C)ccc1OCC(=O)NCCNC(=O)C1=CC(C)(C)NC1(C)C,19,,,3,,
Cc1cccc(C)c1NC(=O)C(NC(=O)C1=CC(C)(C)NC1(C)C)c1ccccc1 (stereo not given),7.6,0.78,15.3,10,,

# — ChEMBL document CHEMBL1123299, “New antiarrhythmic agents. 2,2,5,5-Tetramethyl-3-pyrroline-3-carboxamides and 2,2,5,5-tetramethylpyrrolidine-3-carboxamindes” (J Med Chem, 1986)
